In data set [1] the target is T1, EaAmsI (AmsI, Low Molecular Weight Protein Tyrosine Phosphatase) (Erwinia amylovora, UniProt Q46630).
T1 construct: recombinant EaAmsI (gene from strain Ea273, pETM-11 vector)
Kind of data set: pNPP hydrolysis, dose-response IC50. Type of data set: biochemical.

For data set [2], the system named is O=[N+]([O-])c1ccc(OP(=O)(O)O)cc1. In words: purified protein.
The target in data set [3] is T1, EaAmsI (AmsI, Low Molecular Weight Protein Tyrosine Phosphatase). Kind of data set: pNPP hydrolysis at […] nm, Michaelis-Menten global fit with competitive inhibition model. Type of data set: biochemical.

A word on the IC50: it is the concentration that gives 50% inhibition. As a reminder, the Km is the concentration of substrate that gives half-maximal velocity. By Ki is commonly meant the dissociation constant of the complex between target and ligand, obtained from inhibition or displacement. Read a high Ki as weaker binding.

T1 sequence (Q46630 whole entry): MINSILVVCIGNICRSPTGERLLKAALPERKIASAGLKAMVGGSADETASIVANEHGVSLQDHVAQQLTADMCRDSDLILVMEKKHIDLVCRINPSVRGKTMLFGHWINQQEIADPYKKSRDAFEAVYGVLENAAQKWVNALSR

Compound `CCCCCCCCO[C@@H]1O[C@H](CO)[C@@H](O)[C@H](O)[C@H]1O` [N8G, (2R,3S,4S,5R,6R)-2-(hydroxymethyl)-6-(octyloxy)oxane-3,4,5-triol] displayed an IC50 in data set [1] of 9.5 ± 1.3 mM.
With “EaAmsI (AmsI, Low Molecular Weight Protein Tyrosine Phosphatase) (Erwinia amylovora)”, the Km in data set [2] is reported as 15.1 ± 1.3 mM.
Turning to `CCCCCCCO[C@@H]1O[C@H](CO)[C@@H](O)[C@H](O)[C@H]1O` [N7G, (2R,3R,4S,5S,6R)-2-(heptyloxy)-6-(hydroxymethyl)oxane-3,4,5-triol], the affinity in data set [3], expressed as Ki, was 0.0078 ± 0.0006 mM.

For the origin of these results see publication PMC10708540, “Determination and Kinetic Characterization of a New Potential Inhibitor for AmsI Protein Tyrosine Phosphatase from the Apple Pathogen Erwinia amylovora” (Molecules, 2023).
